{"source": "patent US7858578B2", "about": "“Methods of inducing neuronal growth by a Fucose-α(1-2) galactose (fuc-α(1-2) gal) moiety and a lectin” (California Institute of Technology, priority 2004, dated 2010)", "key": {"[1]": {"tested_on": "synapsin I expressed in HeLa cells", "assay": "Synapsin fucosylation and expression in synapsin I-transfected HeLa cells (immunoblotting)", "assay_type": "cell-based", "conditions": "deoxy sugar for 24 h", "experimental": "(§1) FIG. 19. Inhibition of synapsin fucosylation using 2-dGal decreases the expression and half-life of synapsin I. (A) Effects of 2-dGal and 6-dGal on synapsin fucosylation (left panel) and synapsin expression (right panel) levels. Synapsin I-transfected HeLa cells were treated with the indicated amounts of the deoxy sugar for 24 h. Fucosylation and synapsin expression levels were measured by immunoblotting with antibody A46-B/B10 and an anti-synapsin antibody, respectively. […] Synapsin I-transfected HeLa cells were treated with 2-dGal or a vehicle control (PBS), pulse labeled with ^35S-L-cysteine and ^35S-L-methionine as described in Materials and Methods, and chased for the indicated times. ^35S-labeled synapsin levels were measured by autoradiography. (C) Inhibition of the calcium-activated protease calpain using a calpain inhibitor peptide or calpeptin protects synapsin from degradation. […] Synapsin I-transfected HeLa cells were treated with the indicated inhibitors or vehicle control (DMSO, PBS or MeOH) in the presence or absence of 2-dGal for 15 h. Following lysis, the cell extracts were analyzed for synapsin expression levels by immunoblotting.\nThe effects of 2-dGal on synapsin I expressed in HeLa cells were next investigated. Cell lysates containing equivalent amounts of transfected protein were resolved by SDS-PAGE, and the fucosylation and protein levels of synapsin were measured by immunoblotting, using methods described above."}, "E18 cortical neurons": {"tested_on": "E18 cortical neurons", "assay": "Expression of synaptic proteins in cultured neurons (Western blotting)", "assay_type": "cell-based", "conditions": "15 mM for 3 days, neurons 7 DIV", "experimental": "(§2) FIG. 20. […] (A) E18 cortical neurons cultured for 7 DIV were treated with 15 mM of 2-dGal or 6-dGal for 3 days. Protein lysates were analyzed by Western blotting using antibodies selective for the indicated proteins. A significant reduction in the expression of synapsin Ib was observed, while other synapse-associated proteins were unaffected by the 2-dGal treatment. (B) Neurite retraction caused by 2-dGal is reduced in synapsin-deficient mice. Neurons from synapsin I-deficient or wild-type mice were cultured for 2 days, treated with 2-dGal for 3 days, and analyzed for mean neurite length.\nTo examine the effects of 2-dGal on synapsin fucosylation in neurons, neurons were cultured for 7 DIV to allow for adequate expression of synapsin and subsequently treated with 2-dGal or 6-dGal for comparison. Cells were lysed and immunoblotted as described above. […] The expression of other synaptic proteins, including NSF, the synaptic vesicle protein synaptotagmin, the presynaptic plasma membrane protein syntaxin, and the postsynaptic proteins PSD-95, the AMPA receptor GluR1 subunit and spinophilin, was unchanged by the 2-dGal treatment."}, "hippocampal neurons": {"tested_on": "hippocampal neurons", "assay": "Effects of deoxy-galactose sugars on neuronal morphology (anti-tau immunostaining)", "assay_type": "cell-based, rat", "experimental": "Hippocampal neurons were plated on poly-DL-ornithine-coated glass coverslips as described above. After one day in culture, the medium was replaced with fresh medium, and the small molecules (2-dGal, 3-Deoxy-D-Galactose (3-dGal), or D-Galactose (Gal)) were added. A dose-response experiment was initially performed to determine the minimum concentration of 2-dGal needed to elicit an effect. Neurons were treated with varying concentrations of 2-dGal (1, 5, 10, 15, or 30 mM in 25 μL PBS with 475 μL of supplemented Neurobasal medium) for 2 days before immunostaining with anti-tau antibodies as described above.\nCells were treated as above under 4 different conditions: (1) no treatment for 2 days, (2) incubation with 15 mM 2-dGal for 2 days, (3) incubation with 15 mM 2-dGal for 2 days followed by incubation with 75 mM Gal for 2 days, or (4) incubation with 15 mM 3-dGal for 2 days. After adding the small molecules, cultures were incubated at 37° C., 5% CO2, then washed once with PBS, and immunostained with anti-tau antibody as described above."}, "[2]": {"tested_on": "Fucα(1-2)Gal epitope on glycoproteins", "assay": "Western blot of neuronal lysates with anti-Fucα(1-2)Gal antibody A46-B/B10", "assay_type": "cell-based, rat", "conditions": "30 mM, 4 days", "experimental": "In addition to cells plated on coverslips, hippocampal neurons were grown in 30 mm dishes and treated with or without 30 mM 2-dGal (25 μL in PBS with 475 μL supplemented Neurobasal medium). After 4 days, cells were harvested with 2.5% trypsin, lysed with 1% boiling SDS with protease inhibitors, and cell lysates probed by Western blotting using the anti-Fucα(1-2)Gal antibody A46-B/B10 (Karsten, U., et al., G. Br. J. Cancer, 58:176-181 (1988)). Protein concentrations of the neuronal lysates were determined using the BCA Protein Assay (Pierce). Equal amounts of total protein were resolved by 10% SDS-PAGE, and proteins were transferred to PVDF membrane (Millipore) in 20 mM Tris-Cl pH 8.6/120 mM glycine/20% methanol. Western blots were blocked for 1 h with 3% periodated BSA (Glass, W. F., et al., Anal. Biochem., 115:219-224 (1981)) and rinsed with TBST (50 mM Tris-Cl pH 7.4/150 mM NaCl/0.1% Tween-20). Blots were incubated with anti-Fucα(1-2)Gal antibody A46-B/B10 (0.5 μg/mL; gift from Dr. U. Karsten, Max-Delbruck Centre for Molecular Medicine, Berlin-Buch, Germany) in TBST overnight at 4° C. with constant rocking, then rinsed and washed twice for 10 min with TBST. Immunoreactivity was visualized by incubation with a horseradish peroxidase conjugated goat anti-mouse antibody (1:2500; Pierce) in TBST for 1 h followed by a rinse and four washes of 20 min with TBST. […]"}, "hippocampal slices": {"tested_on": "hippocampal slices", "conditions": "cited from earlier work"}, "[3]": {"tested_on": "synapsin I-transfected HeLa cells", "assay": "Synapsin degradation with inhibitors of protein degradation with or without 2-dGal", "assay_type": "cell-based", "conditions": "2-dGal alone, 15 h", "experimental": "as §1\nTo investigate the molecular mechanisms responsible for synapsin degradation, cells expressing synapsin were treated with various inhibitors of protein degradation in the presence or absence of 2-dGal. Specifically, the lysosomal inhibitors bafilomycin A1 and ammonium chloride, the proteasome inhibitor MG132, and two inhibitors of the calcium-dependent protease calpain, were used."}, "[4]": {"conditions": "animals; cited from earlier work"}, "[5]": {"tested_on": "neurons from synapsin I-deficient or wild-type mice", "assay": "2-dGal-mediated neurite retraction in neurons from synapsin I-deficient or wild-type mice", "assay_type": "cell-based", "conditions": "cultured 2 days, 2-dGal for 3 days; n=50; p<0.003", "experimental": "as §2\nAlthough synapsin I represents the major fucosylated protein in mature neuronal cultures, other proteins are also covalently modified by Fucα(1-2)Gal during early developmental stages (See FIG. 9A). The relative contribution of synapsin to the striking effects of 2-dGal on neuronal morphology were therefore investigated. Neurons were cultured from synapsin I-deficient (Chin, L. S., et al., Proc. Natl. Acad. Sci. USA 92:9230-9234 (1995); Drs. H. T Kao and P. Greengard, The Rockefeller University, New York, N.Y.) or wild-type mice for 2 days, treated with 2-dGal for 3 days, immunostained for tubulin, and examined by confocal fluorescence microscopy. […]"}}, "note": "“Also recorded” adds a separate entry of the source.", "data": [{"compound": "O=CC[C@@H](O)[C@@H](O)[C@H](O)CO", "note": "[Compound 2-dGal, 2-Deoxy-D-Galactose]", "values": [{"measurement": "fucosylation level of synapsin", "setting": "[1]", "value": "dramatic effect on the fucosylation level of synapsin"}, {"measurement": "level of synapsin protein", "setting": "[1]", "value": "significant decrease in the level of synapsin protein"}, {"measurement": "expression of other synaptic proteins (NSF, synaptotagmin, syntaxin, PSD-95, GluR1, spinophilin)", "setting": "E18 cortical neurons", "value": "unchanged"}, {"measurement": "expression of synapsin I", "setting": "E18 cortical neurons", "value": "dramatically reduced the expression of synapsin I; also recorded: reduces synapsin I expression levels"}, {"measurement": "effect on neurite outgrowth", "setting": "hippocampal neurons; 15 mM for 2 days", "value": "strong effect on neurite outgrowth; also recorded: severely stunted neurites and failed to form synapses; also recorded: inhibits neuronal growth"}, {"measurement": "neurites with increasing concentration", "setting": "hippocampal neurons; 1, 5, 10, 15 or 30 mM for 2 days", "value": "gradual decrease in neurites"}, {"measurement": "cellular toxicity (trypan blue staining, adherence, morphology)", "setting": "hippocampal neurons; concentrations up to 30 mM", "value": "No cellular toxicity"}, {"measurement": "level of Fucα(1-2)Gal epitope on glycoproteins", "setting": "[2]", "value": "disrupted synthesis of the Fucα(1-2)Gal epitope on glycoproteins; also recorded: significantly reduced levels of the Fucα(1-2)Gal epitope; also recorded: diminishes expression of the Fucα(1-2)Gal epitope"}, {"measurement": "effect on LTP", "setting": "hippocampal slices", "value": "interferes with the maintenance of long-term potentiation"}, {"measurement": "levels of synapsin expression", "setting": "[3]", "value": "significantly reduced the levels of synapsin expression"}, {"measurement": "effect on memory", "setting": "[4]", "value": "reversible amnesia"}, {"measurement": "increase of mean neurite length, synapsin knockout compared to wild-type neurons", "setting": "[5]", "value": "17.4±5.2", "unit": "%"}]}]}
